Bounds are passed on as bounds.

This note sets out measurements from patent US6881741B2 (ViroChem Pharma Inc., priority 2001, dated 2005).

For one assay, the target named is recombinant HCV NS5B (HCV RNA-dependent RNA polymerase) (Hepatitis C virus genotype 1b, UniProt P26663). Nature of the assay: biochemical. The following applies: HCV polymerase activity, list of compounds of Example 27; read-out: IC50 (polymerase activity).
recombinant HCV NS5B (HCV RNA-dependent RNA polymerase), sequence (P26663 2420-3010 limits assumed): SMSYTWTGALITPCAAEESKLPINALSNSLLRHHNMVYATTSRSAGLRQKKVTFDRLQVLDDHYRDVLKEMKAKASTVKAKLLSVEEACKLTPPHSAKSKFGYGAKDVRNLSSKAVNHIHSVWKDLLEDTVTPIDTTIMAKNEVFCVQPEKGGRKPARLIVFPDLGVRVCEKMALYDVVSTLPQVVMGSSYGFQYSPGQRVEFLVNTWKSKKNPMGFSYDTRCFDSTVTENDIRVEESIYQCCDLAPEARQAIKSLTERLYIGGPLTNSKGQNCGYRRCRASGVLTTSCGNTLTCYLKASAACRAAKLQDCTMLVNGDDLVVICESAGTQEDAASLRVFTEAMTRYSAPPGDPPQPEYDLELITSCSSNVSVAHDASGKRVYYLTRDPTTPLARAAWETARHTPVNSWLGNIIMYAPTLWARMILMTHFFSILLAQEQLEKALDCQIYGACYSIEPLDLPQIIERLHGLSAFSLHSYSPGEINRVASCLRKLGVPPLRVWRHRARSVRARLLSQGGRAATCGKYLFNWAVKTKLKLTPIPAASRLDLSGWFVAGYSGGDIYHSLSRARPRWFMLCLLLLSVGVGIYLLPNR
For `O=C(NC1CCC(N(C(=O)c2ccc(Cl)cc2Cl)c2cc(-c3ccccc3)sc2C(=O)O)CC1)OCc1ccccc1` (stereo not shown) [Compound 512, 3-[(4-BENZYLOXYCARBONYLAMINO- CYCLOHEXYL)-(2,4-DICHLORO- BENZOYL)-AMINO]-5-PHENYL- THIOPHENE-2-CARBOXYLIC ACID], the IC50 is below 5 µM.
On the same count and under the same terms, in the case of `CCCC(=O)N(Cc1cccc(OC)c1)c1cc(-c2ccccc2)sc1C(=O)O` [Compound 475, 3-[BUTYRYL-(3-METHOXY-BENZYL)- AMINO]-5-PHENYL-THIOPHENE-2- CARBOXYLIC ACID] it was 5 to 20 µM; in that of `CC(CNC(=O)OC(C)(C)C)N(C(=O)c1ccc(Cl)cc1Cl)c1cc(-c2ccccc2)sc1C(=O)O` (stereo not shown) [Compound 545, 3-[(2-TERT-BUTOXYCARBONYLAMINO-1- METHYL-ETHYL)-(2,4-DICHLORO- BENZOYL)-AMINO]-5-PHENYL- THIOPHENE-2-CARBOXYLIC ACID], below 5 µM.
Regarding `CC1CCC(C(=O)N(c2cc(-c3ccccc3)sc2C(=O)O)C2COCOC2)CC1` (stereo not shown) [Compound 554, 3-[[1,3]DIOXAN-5-YL-(4-METHYL- CYCLOHEXANECARBONYL)-AMINO]-5- PHENYL-THIOPHENE-2-CARBOXYLIC ACID], the half-maximal inhibitory concentration (IC50) was below 5 µM.
The same measure, in the same setting: to `CC1CCC(C(=O)N(c2cc(-c3ccc(C#N)cc3)sc2C(=O)O)C(C)C)CC1` (stereo not shown) [Compound 576, 5-(4-CYANO-PHENYL-3-[ISOPROPYL-(4- METHYL-CYCLOHEXANECARBONYL)- AMINO]-THIOPHENE-2-CARBOXYLIC ACID] belongs below 5 µM; to `CC(C)(C)OC(=O)N1CCCC(N(C(=O)c2ccc(Cl)cc2Cl)c2cc(-c3ccccc3)sc2C(=O)O)CC1` (stereo not shown) [Compound 507, 4-[(2-CARBOXY-5-PHENYL-THIOPHEN-3- YL)-(2,4-DICHLORO-BENZOYL)-AMINO]- AZEPANE-1-CARBOXYLIC ACID TERT!- BUTYL ESTER], below 5 µM; to `CC(C)N(C(=O)[C@@H]1CC[C@@H](C)C[C@@H]1O)c1cc(-c2ccccc2)sc1C(=O)O` [Compound 540, 3-[((1R,2S,4R)-2-HYDROXY-4-METHYL- CYCLOHEXANECARBONYL)-ISOPROPYL- AMINO]-5-PHENYL-THIOPHENE-2- CARBOXYLIC ACID], below 5 µM.
Take `CC(C)(C)c1ccc(CN(C(=O)C2CCC2)c2cc(-c3ccccc3)sc2C(=O)O)cc1` [Compound 439, 3-[(4-TERT-BUTYL-BENZYL)- CYCLOBUTANECARBONYL-AMINO]-5- PHENYL-THIOPHENE-2-CARBOXYLIC ACID]: the IC50 is below 5 µM.
Still for that read-out and setting: in the case of `O=C(O)c1sc(-c2ccccc2)cc1N(Cc1ccccc1Cl)C(=O)C1CCC1` [Compound 425, 3-[(2-CHLORO-BENZYL)- CYCLOBUTANECARBONYL-AMINO]-5- PHENYL-THIOPHENE-2-CARBOXYLIC ACID] it was 5 to 20 µM; in that of `CC1CCC(C(=O)N(c2cc(-c3ccc(Cl)cc3)sc2C(=O)O)C(C)C)CC1` (stereo not shown) [Compound 570, 5-(4-CHLORO-PHENYL)-3-[ISOPROPYL-(4- METHYL-CYCLOHEXANECARBONYL)- AMINO]-THIOPHENE-2-CARBOXYLIC ACID], below 5 µM.

Still in this assay, the particulars now being: related polymerase activity (Example 27 list); read-out: IC50.
In the case of `CC(C)N(C(=O)c1ccc(Cl)cc1)c1cc(-c2ccccc2)sc1C(=O)O` [Compound 210, 3-[(4-CHLORO-BENZOYL)-ISOPROPYL-AMINO]-5-PHENYL-THIOPHENE-2-CARBOXYLIC ACID], the IC50 is below 5 µM.
As for `O=C(O)c1sc(-c2ccccc2)cc1N(Cc1ccc(-c2cc3ccccc3o2)s1)C(=O)c1ccc(Cl)cc1Cl` [Compound 12, 3-[(5-BENZOFURAN-2-YL-THIOPHEN-2-YLMETHYL)-(2,4-DICHLORO-BENZOYL)-AMINO]-5-PHENYL-THIOPHENE-2-CARBOXYLIC ACID], the half-inhibitory concentration (IC50) was 5 to 20 µM.
Same read-out and setting: in the case of `Cc1ccc(C(=O)N(C)c2cc(-c3ccc(C)cc3)sc2C(=O)O)cc1` [Compound 199, 3-[METHYL-(4-METHYL-BENZOYL)-AMINO]-5-P-TOLYL-THIOPHENE-2-CARBOXYLIC ACID] it was 5 to 20 µM; in that of `Cc1ccc(C(=O)N(c2cc(-c3ccccc3)sc2C(=O)O)C(C)C)cc1F` [Compound 331, 3-[(3-FLUORO-4-METHYL-BENZOYL)- ISOPROPYL-AMINO]-5-PHENYL- THIOPHENE-2-CARBOXYLIC ACID], below 5 µM.
Turning to `Cc1ccccc1S(=O)(=O)Nc1cc(-c2cccc([N+](=O)[O-])c2)sc1C(=O)O` [Compound 63, 5-(3-NITRO-PHENYL)-3-(TOLUENE-2-SULFONYLAMINO)-THIOPHENE-2-CARBOXYLIC ACID], the IC50 was below 5 µM.
Same read-out and setting: to `Cc1ccc(C(=O)N(Cc2ccccc2)c2cc(-c3ccccc3)sc2C(=O)O)cc1` [Compound 340, 3-[BENZYL-(4-METHYL-BENZOYL)- AMINO]-5-PHENYL-THIOPHENE-2- CARBOXYLIC ACID] belongs below 5 µM; to `O=C(Nc1cc(Cl)nc(Cl)c1)Nc1cc(-c2ccccc2)sc1C(=O)O` [Compound 28, 3-[3-(2,6-DICHLORO-PYRIDIN-4-YL)-UREIDO]-5-PHENYL-THIOPHENE-2-CARBOXYLIC ACID], below 5 µM; to `CCCN(C(=O)c1ccc(C)cc1)c1cc(-c2ccc(CCC(=O)O)cc2)sc1C(=O)O` [Compound 318, 5-[4-(2-CARBOXY-ETHYL)-PHENYL]-3-[(4- METHYL-BENZOYL)-PROPYL-AMINO]- THIOPHENE-2-CARBOXYLIC ACID], 5 to 20 µM.
On the same count and under the same terms, to `O=C(O)c1sc(-c2ccccc2)cc1NS(=O)(=O)c1cccc([N+](=O)[O-])c1` [Compound 147, 3-(3-NITRO-BENZENESULFONYLAMINO)-5-PHENYL-THIOPHENE-2-CARBOXYLIC ACID] belongs below 5 µM.
On the same count and under the same terms, in the case of `O=C(O)c1sc(-c2ccccc2)cc1NS(=O)(=O)c1ccccn1` [Compound 47, 5-PHENYL-3-(PYRIDINE-2-SULFONYLAMINO)-THIOPHENE-2-CARBOXYLIC ACID] it was above 20 µM; in that of `Cc1ccc(C(=O)N(Cc2ccc(Cl)cc2)c2cc(-c3ccccc3)sc2C(=O)O)cc1` [Compound 341, 3-[(4-CHLORO-BENZYL)-(4-METHYL- BENZOYL)-AMINO]-5-PHENYL- THIOPHENE-2-CARBOXYLIC ACID], below 5 µM; in that of `O=C(O)c1sc(-c2ccccc2)cc1NS(=O)(=O)c1cnc(Cl)c(Br)c1` [Compound 36, 3-(5-BROMO-6-CHLORO-PYRIDINE-3-SULFONYLAMINO)-5-PHENYL-THIOPHENE-2-CARBOXYLIC ACID], above 20 µM.
`CN(C(=O)c1ccc(Cl)cc1Cl)c1cc(-c2ccccc2)sc1C(=O)O` [Compound 9, 3-[(2,4-DICHLORO-BENZOYL)-METHYL-AMINO]-5-PHENYL-THIOPHENE-2-CARBOXYLIC ACID]: the IC50 is below 5 µM.
On the same count and under the same terms, to `Cc1ccc(S(=O)(=O)Nc2cc(-c3ccc(/C=C/C(=O)O)cc3)sc2C(=O)O)c(C)c1` [Compound 322, 5-[4-(2-CARBOXY-VINYL)-PHENYL]-3-(2,4- DIMETHYL-BENZENESULFONYLAMINO)- THIOPHENE-2-CARBOXYLIC ACID] belongs below 5 µM; to `Cc1ccc(C(=O)N(C)c2cc(-c3ccc(Cl)cc3)sc2C(=O)O)cc1` [Compound 192, 5-(4-CHLORO-PHENYL)-3-[METHYL-(4-METHYL-BENZOYL)-AMINO]-THIOPHENE-2-CARBOXYLIC ACID], 5 to 20 µM.
The same measure, in the same setting: to `O=C(O)c1sc(-c2ccccc2)cc1NC(=O)N1CCC(n2c(=O)[nH]c3ccccc32)CC1` [Compound 113, 3-{[4-(2-OXO-2,3-DIHYDRO-BENZOIMIDAZOL-1-YL)-PIPERIDINE-1-CARBONYL]-AMINO]-5-PHENYL-THIOPHENE-2-CARBOXYLIC ACID] belongs above 20 µM; to `CC1CCC(C(=O)N(c2cc(-c3cccc([N+](=O)[O-])c3)sc2C(=O)O)C(C)C)CC1` (stereo not shown) [Compound 383, 3-[ISOPROPYL-(4-METHYL- CYCLOHEXANECARBONYL)-AMINO]-5-(3- NITRO-PHENYL)-THIOPHENE-2- CARBOXYLIC ACID], below 5 µM; to `Cc1ccccc1S(=O)(=O)Nc1cc(-c2ccc(OC(F)(F)F)cc2)sc1C(=O)O` [Compound 60, 3-(TOLUENE-2-SULFONYLAMINO)-5-(4-TRIFLUOROMETHOXY-PHENYL)-THIOPHENE-2-CARBOXYLIC ACID], below 5 µM.
`Cc1cccc(C)c1S(=O)(=O)Nc1cc(-c2ccccc2)sc1C(=O)O` [Compound 285, 3-(2,6-DIMETHYL-BENZENESULFONYLAMINO)-5-PHENYL-THIOPHENE-2-CARBOXYLIC ACID]: the half-maximal inhibitory concentration (IC50) was below 5 µM.
Still for that read-out and setting: in the case of `CC(C)N(C(=O)c1ccc(Cl)cc1Cl)c1cc(-c2ccc(F)cc2)sc1C(=O)O` [Compound 356, 3-[(2,4-DICHLORO-BENZOYL)- ISOPROPYL-AMINO]-5-(4-FLUORO- PHENYL)-THIOPHENE-2-CARBOXYLIC ACID] it was below 5 µM; in that of `O=C(O)c1sc(-c2ccccc2)cc1NC(=O)N1CCN(c2ccc([N+](=O)[O-])cc2)CC1` [Compound 114, 3-{[4-(4-NITRO-PHENYL)-PIPERAZINE-1-CARBONYL]-AMINO}-5-PHENYL-THIOPHENE-2-CARBOXYLIC ACID], below 5 µM; in that of `CN(C(=O)c1ccccc1Br)c1cc(-c2ccccc2)sc1C(=O)O` [Compound 187, 3-[(2-BROMO-BENZOYL)-METHYL-AMINO]-5-PHENYL-THIOPHENE-2-CARBOXYLIC ACID], 5 to 20 µM.
Consider `Cc1ccc(C(=O)N(C)c2cc(-c3ccc(CO)cc3)sc2C(=O)O)cc1` [Compound 195, 5-(4-HYDROXYMETHYL-PHENYL)-3-[METHYL-(4-METHYL-BENZOYL)-AMINO]-THIOPHENE-2-CARBOXYLIC ACID], for which the IC50 is 5 to 20 µM.
Still for that read-out and setting: in the case of `CC(C)N(C(=O)C1CCCCC1)c1cc(-c2ccccc2)sc1C(=O)O` [Compound 362, 3-(CYLCOHEXANECARBONYL- ISOPROPYL-AMINO)-5-PHENYL- THIOPHENE-2-CARBOXYLIC ACID] it was 5 to 20 µM; in that of `CC(C)N(C(=O)c1ccccc1Cl)c1cc(-c2ccccc2)sc1C(=O)O` [Compound 218, 3-[(2-CHLORO-BENZOYL)-ISOPROPYL-AMINO]-5-PHENYL-THIOPHENE-2-CARBOXYLIC ACID], 5 to 20 µM; in that of `Nc1ccccc1S(=O)(=O)Nc1cc(-c2ccccc2)sc1C(=O)O` [Compound 146, 3-(2-AMINO-BENZENESULFONYLAMINO)-5-PHENYL-THIOPHENE-2-CARBOXYLIC ACID], below 5 µM.
Take `Cc1ccccc1S(=O)(=O)Nc1cc(CCc2ccccc2)sc1C(=O)O` [Compound 120, 5-PHENETHYL-3-(TOLUENE-2-SULFONYLAMINO)-THIOPHENE-2-CARBOXYLIC ACID]: the IC50 lay in the range of 5 to 20 µM.
